Results on 31 compounds are retold here after paper PMC7587356, “High-Throughput Screening for Inhibitors of the SARS-CoV-2 Protease Using a FRET-Biosensor” (Molecules, 2020).

Structures can show the parent of a compound that is named as a salt. Where two headings read alike, the source gives them in different places.

The test addresses SARS-CoV-2 3CLpro (Severe acute respiratory syndrome coronavirus 2, UniProt P0DTD1). The test can be described thus: biochemical. The format is biochemical. Set-up: Replicate_1 / Replicate_2 / mean / mean (LOPAC_screen_w_protease): unit not given here. Conditions: for inhibition at 5 µM: 4 h.
Setting [1] is: sheet LOPAC_screen_w_protease, LOPAC1280 primary screen at 5 µM, with protease, mean of the two replicates.
The mark [2] stands for this setting: sheet LOPAC_screen_w_protease, LOPAC1280 primary screen at 5 µM, with protease, replicate 1.
Setting [3] is: sheet LOPAC_screen_w_protease, LOPAC1280 primary screen at 5 µM, with protease, replicate 2.
Setting [4] is: LOPAC1280 primary screen with protease, 5 µM compound, replicate 1, read-out: Replicate_1 (LOPAC_screen_w_protease).
The mark [5] stands for this setting: LOPAC1280 primary screen with protease, 5 µM compound, replicate 2, read-out: Replicate_2 (LOPAC_screen_w_protease).
The mark [6] stands for this setting: LOPAC1280 primary screen with protease, 5 µM compound, mean of the two replicates.
The mark [7] stands for this setting: sheet LOPAC_screen_w_protease, primary screen of LOPAC1280 at 5 µM with protease, mean of the two replicates.
Where [8] appears, read: sheet LOPAC_screen_w_protease, primary screen of LOPAC1280 at 5 µM with protease, replicate 1.
[9] abbreviates: sheet LOPAC_screen_w_protease, primary screen of LOPAC1280 at 5 µM with protease, replicate 2.
The mark [10] stands for this setting: sheet LOPAC_screen_w_protease, primary screen with protease, compound at 5 µM, mean of two replicates, read-out: mean.
The mark [11] stands for this setting: sheet LOPAC_screen_w_protease, primary screen with protease, compound at 5 µM, replicate 1, read-out: Replicate_1.
Setting [12] is: sheet LOPAC_screen_w_protease, primary screen with protease, compound at 5 µM, replicate 2, read-out: Replicate_2.
The mark [13] stands for this setting: sheet LOPAC_screen_w_protease, primary screen with protease, mean of two replicates.
Setting [14] is: sheet LOPAC_screen_w_protease, primary screen with protease, replicate 1.
Where [15] appears, read: sheet LOPAC_screen_w_protease, LOPAC1280 at 5 µM, mean of two replicates.
The mark [16] stands for this setting: sheet LOPAC_screen_w_protease, LOPAC1280 at 5 µM, replicate 1.
[17] abbreviates: sheet LOPAC_screen_w_protease, LOPAC1280 at 5 µM, replicate 2.
Setting [18] is: sheet LOPAC_screen_w_protease, primary screen of LOPAC1280 at 5 µM with protease, mean of the two replicates, read-out: mean.
[19] abbreviates: sheet LOPAC_screen_w_protease, primary screen of LOPAC1280 at 5 µM with protease, replicate 1, read-out: Replicate_1.
[20] abbreviates: sheet LOPAC_screen_w_protease, primary screen of LOPAC1280 at 5 µM with protease, replicate 2, read-out: Replicate_2.
The mark [21] stands for this setting: sheet LOPAC_screen_w_protease, primary screen at 5 µM, mean of two replicates.
Where [22] appears, read: sheet LOPAC_screen_w_protease, primary screen at 5 µM, replicate 1.
[23] abbreviates: sheet LOPAC_screen_w_protease, primary screen at 5 µM, replicate 2.
[24] abbreviates: sheet LOPAC_screen_w_protease, LOPAC1280 primary screen with protease, 5 µM compound, mean of the two replicates, read-out: mean.
Where [25] appears, read: sheet LOPAC_screen_w_protease, LOPAC1280 primary screen with protease, 5 µM compound, replicate 1, read-out: Replicate_1.
Where [26] appears, read: sheet LOPAC_screen_w_protease, LOPAC1280 primary screen with protease, 5 µM compound, replicate 2, read-out: Replicate_2.

In turn, `[Cl-].[Li+]` [Lithium Chloride] gave a mean under setting [1] of 0.7152. Under setting [2], this compound yielded a Replicate_1 of 0.8231. Besides, the Replicate_2 under setting [3] is 0.6073.
In the case of `CC[C@H](CO)Nc1nc(NCc2ccccc2)c2ncn(C(C)C)c2n1` [Roscovitine], the “mean (LOPAC_screen_w_protease)” value came to 1.3343. In addition, the inhibition at 5 µM (read-out: Replicate_1 (LOPAC_screen_w_protease)) amounted to 3.12%. The inhibition at 5 µM (read-out: Replicate_2 (LOPAC_screen_w_protease)) was -0.448%.
On to `Cc1ccc(/C(=C\CN2CCCC2)c2ccccn2)cc1.Cl` [Triprolidine hydrochloride], for which the mean (sheet LOPAC_screen_w_protease, primary screen with protease, 5 µM, mean of two replicates) stood at 0.01953. In addition, the Replicate_1 (sheet LOPAC_screen_w_protease, primary screen with protease, 5 µM, replicate 1) was found to be 0.1702. Further, the Replicate_2 (sheet LOPAC_screen_w_protease, primary screen with protease, 5 µM, replicate 2) is reported as -0.1311.
Consider `CN1CCN(CC(=O)N2c3ccccc3C(=O)Nc3cccnc32)CC1` [Pirenzepine dihydrochloride], for which the inhibition at 5 µM amounted to 2.98% under setting [4] and 0.888% under setting [5]. Besides, under setting [6], the “mean (LOPAC_screen_w_protease)” value came to 1.931.
The compound `CC(C)NCC(O)COc1cccc2ccccc12.Cl` (racemic) [(±)-Propranolol hydrochloride] displayed a Replicate_1 of 2.83, a Replicate_2 of 6.763 and a mean of 4.797.
In turn, `CC[C@@]1(O)C(=O)OCc2c1cc1n(c2=O)Cc2cc3ccccc3nc2-1` [(S)-(+)-Camptothecin] returned a mean under setting [7] of 3.282. The compound further gave a Replicate_1 under setting [8] of 4.077. Under setting [9], this compound had a Replicate_2 of 2.488.
In the case of `N[C@H]1CON=C1O` [L-Cycloserine], the inhibition at 5 µM reads like this: under setting [10], 3.14%; under setting [11], 0.423%; under setting [12], 5.86%.
In the same order, the values of `CNc1ccc2oc(C[C@H]3O[C@@]4(CC[C@H]3C)O[C@H]([C@H](C)C(=O)c3ccc[nH]3)[C@H](C)C[C@H]4C)nc2c1C(=O)O` [Calcimycin] are 3.09%, 2.08% and 4.1%.
With S(-)-DS 121 hydrochloride, the mean under setting [13] is recorded as 2.32. The Replicate_1 under setting [14] was 2.977.
In the case of `CC(C)(C)NCC(O)COc1cccc2[nH]c(=O)[nH]c12.Cl` (racemic) [(±)-CGP-12177A hydrochloride], the mean under setting [15] turned out to be 1.308. Moreover, under setting [16], the Replicate_1 came out at 3.897. The Replicate_2 under setting [17] is -1.282.
Consider `CC1=C[C@@H]2c3cccc4[nH]cc(c34)C[C@H]2N(C)C1` [Agroclavine], for which the inhibition at 5 µM runs as follows: under setting [18], 3.47%; under setting [19], 3.6%; under setting [20], 3.34%.
`N[C@H](CCC(=O)NCS(=O)(=O)O)C(=O)O` [gamma-D-Glutamylaminomethylsulfonic acid]: the mean under setting [15] was found to be 1.223. Moreover, the Replicate_1 under setting [16] is reported as 4.708. The Replicate_2 under setting [17] is -2.2619.
In the case of `COC(=O)c1c(-c2cc(OC)c(OC)c(OC)c2)c2ccnc(OCc3ncccn3)c2c(=O)n1Cc1ccnc(C)c1` [T-0156], under setting [1], the mean came to 0.7124. The Replicate_1 under setting [2] worked out at 1.2. Besides, the Replicate_2 under setting [3] is listed as 0.2248.
In the case of `OCCN1CCN(CCCN2c3ccccc3Sc3ccc(C(F)(F)F)cc32)CC1` [Fluphenazine dihydrochloride], the inhibition at 5 µM is, setting by setting: under setting [4], 4.18%; under setting [5], -0.136%. Moreover, the “mean (LOPAC_screen_w_protease)” value under setting [6] came out at 2.023.
The compound `CC(N)(Cc1ccc(O)cc1)C(=O)O` (racemic) [DL-alpha-Methyl-p-tyrosine] registered a mean under setting [15] of 1.1698. The Replicate_1 under setting [16] was 0.7226. Besides, the Replicate_2 under setting [17] came to 1.617.
Take `CCC(NC(C)C)C(O)c1ccc(O)c(O)c1.CS(=O)(=O)O` (stereo not shown) [Isotharine mesylate]: the “mean (LOPAC screen with protease)” value under setting [21] is 8.447. Besides, the “Replicate_1 (LOPAC screen with protease)” value under setting [22] was 8.4794. Under setting [23], the “Replicate_2 (LOPAC screen with protease)” value was 8.416.
In the same order, the values of `Br.Oc1cc2c(c(Cl)c1O)CCNCC2c1ccccc1` (racemic) [(±)-6-Chloro-PB hydrobromide] are 66.2827, 64.3769 and 68.1884.
The compound `O=C(O)CN(CCOCCOCCN(CC(=O)O)CC(=O)O)CC(=O)O` gave a Replicate_1 of 4.424, a Replicate_2 of 0.4872 and a mean of 2.456.
Consider `Oc1ccc(Cn2cc[nH]c2=S)cc1` [1-(4-Hydroxybenzyl)imidazole-2-thiol], for which the inhibition at 5 µM is 35.7% (sheet LOPAC_screen_w_protease, primary screen at 5 µM, mean of two replicates, read-out: mean (LOPAC screen with protease)); 39.5% (sheet LOPAC_screen_w_protease, primary screen at 5 µM, replicate 1, read-out: Replicate_1 (LOPAC screen with protease)); 31.9% (sheet LOPAC_screen_w_protease, primary screen at 5 µM, replicate 2, read-out: Replicate_2 (LOPAC screen with protease)).
For `CC(Cc1ccc(O)c(O)c1)C(C)Cc1ccc(O)c(O)c1` (stereo not shown), under setting [21], the “mean (LOPAC screen with protease)” value is reported as 97.9088. In addition, under setting [22], the “Replicate_1 (LOPAC screen with protease)” value is reported as 97.7665. Further, the “Replicate_2 (LOPAC screen with protease)” value under setting [23] came out at 98.0511.
As for `CC(=O)OCC1=C(C(=O)O)N2C(=O)[C@@H](NC(=O)Cc3cccs3)[C@H]2SC1` [Cephalothin sodium], the inhibition at 5 µM reads like this: under setting [24], 5.22%; under setting [25], 4.83%; under setting [26], 5.61%.
Regarding `CC#CCOC(=O)c1c(C)nc2sc3c(c2c1N)CCC(O)C3` (stereo not shown) [SB 205384], under “sheet LOPAC_screen_w_protease, LOPAC1280 primary screen at 5 µM, with protease, mean of two replicates”, the mean is given as -1.612. The same compound gave a Replicate_1 under setting [2] of 2.126. In addition, the Replicate_2 under setting [3] is recorded as -5.349.
`CCCN(CCC)CCc1c[nH]c2ccc(C(N)=O)cc12.O=C(O)/C=C\C(=O)O` showed a mean under setting [7] of 3.512. The Replicate_1 under setting [8] amounted to 3.371. The compound further displayed a Replicate_2 under setting [9] of 3.653.
As for `N#C/C(=C\c1ccc(O)c(O)c1)C(=O)Nc1ccccc1` [Tyrphostin AG 494], the inhibition at 5 µM is, setting by setting: under setting [18], 4.07%; under setting [19], 4.44%; under setting [20], 3.69%.
Under setting [13], `Cl.Clc1cc(I)cc(Cl)c1NC1=NCCN1` [p-Iodoclonidine hydrochloride] came in with a mean of 2.258. The compound further registered a Replicate_1 under setting [14] of 3.3723. In addition, the Replicate_2 (sheet LOPAC_screen_w_protease, primary screen with protease, replicate 2) amounted to 1.143.
Under “sheet LOPAC_screen_w_protease, primary screen with protease, compound at 5 µM, mean of two replicates”, `O=C(OCCN1CCCCC1)c1c[nH]c2ccccc12` [SB 203186] yielded a mean of 2.639. For the setting “sheet LOPAC_screen_w_protease, primary screen with protease, compound at 5 µM, replicate 1”, this compound registered a Replicate_1 of 2.947. Moreover, the Replicate_2 (sheet LOPAC_screen_w_protease, primary screen with protease, compound at 5 µM, replicate 2) came out at 2.331.
Under setting [7], Foliosidine gave a mean of 3.597. Under setting [9], the Replicate_2 worked out at 2.375.
Consider `C[C@]12CC[C@@H](O)C[C@@H]1CC[C@@H]1[C@@H]2CC[C@]2(C)C(=O)CC[C@@H]12` [Androsterone], for which the inhibition at 5 µM runs as follows: (read-out: Replicate_1) 1.73%; (read-out: Replicate_2) 3.02%; (read-out: mean) 2.38%.
For `CN1CCc2cccc(Cl)c2CC1` [SKF 86466], the inhibition at 5 µM (sheet LOPAC_screen_w_protease, LOPAC1280 primary screen at 5 µM, with protease, mean of the two replicates, read-out: mean) was 0.452%; the inhibition at 5 µM (sheet LOPAC_screen_w_protease, LOPAC1280 primary screen at 5 µM, with protease, replicate 1, read-out: Replicate_1) turned out to be 0.136%; the inhibition at 5 µM (sheet LOPAC_screen_w_protease, LOPAC1280 primary screen at 5 µM, with protease, replicate 2, read-out: Replicate_2) worked out at 0.768%.
Regarding `COc1cccc2c1[C@@H]1CN(CCCCn3c(=O)[nH]c4c(sc5ncc(-c6ccccc6)nc54)c3=O)C[C@@H]1CO2` [Fiduxosin hydrochloride], the inhibition at 5 µM is, setting by setting: under setting [18], 3.27%; under setting [19], 3.54%; under setting [20], 3.01%.
In the case of `CCOC(=O)C1=C(C)NC(C)=C(C(=O)OC)C1c1cccc([N+](=O)[O-])c1` (stereo not shown) [Nitrendipine], the inhibition at 5 µM is 4.54% under setting [24], 3.89% under setting [25] and 5.19% under setting [26].
